Data: paper PMC2717937 (Journal of Experimental & Clinical Cancer Research : CR, 2009)
Structures can show the parent of a compound that is named as a salt. Where two headings read alike, the source gives them in different places.

How the values were obtained:
[1] = vehicle 30 min before, listed as Imatinib alone
[2] = imatinib 50 mg/kg oral, vehicle 30 min before
[3] = oral; cited from earlier work
[4] = in vivo; conditions: Balb/C, mouse, plasma, po, 50 mg/kg
[5] = in vivo; conditions: Balb/C, mouse, liver, po, 50 mg/kg
[6] = imatinib 50 mg/kg oral, vehicle 30 min before; remark: listed apart in the source
[7] = in vivo; conditions: Balb/C, mouse, brain, po, 50 mg/kg
[8] = tested on: ABCB1 in CD56+ lymphocytes; conditions: healthy volunteers, tariquidar 2 mg/kg i.v. or ≥ 200 mg orally; cited from earlier work
[9] = tested on: drug efflux; design: method as in PMID 11212278; conditions: cited from earlier work
[10] = elacridar with imatinib 12.5 mg/kg vs imatinib alone; cited from earlier work
[11] = listed as imatinib plus vehicle

Cc1ccc(NC(=O)c2ccc(CN3CCN(C)CC3)cc2)cc1Nc1nccc(-c2cccnc2)n1 [Imatinib, Imatinib mesylate]
Plasma Cmax ([1]; imatinib 50 mg/kg oral gavage, mean, n = 3 per time point): 5,710.5 ng/mL | Plasma AUC0–24 ([1]; imatinib 50 mg/kg oral): 12,167.5 hr*ng/mL | Liver AUC0–24 [2]: 68,330.8 hr*ng/g | Liver AUC0–24 (text) [2]: 68,331 hr*ng/mL | Liver Cmax ([2]; listed as Imatinib alone): 26,279.7 ng/g | Liver Cmax [2, 11]: 26,280 ng/g | Bioavailability [3]: approximately 98% | Tmax [4]: 10.2 min | AUC(0-t) ([4]; Plasma AUC0–24, imatinib 50 mg/kg oral, vehicle 30 min before): 12200 ng·h/mL | Cmax ([4]; Plasma Cmax, imatinib 50 mg/kg oral gavage, vehicle 30 min before, mean, n = 3 per time point): 5710 ng/mL | Tmax [5]: 15 min | Brain AUC0–4 [6]: 574.23 ng·h/g | Brain Cmax (corrected for brain vascular space) ([6]; listed as Imatinib alone): 194.7 ng/g | Brain Cmax (corrected for brain vascular space) [6, 11]: 195 ng/g | Tmax [7]: 120 min

COc1cc2c(cc1OC)CN(CCc1ccc(NC(=O)c3cc(OC)c(OC)cc3NC(=O)c3cnc4ccccc4c3)cc1)CC2 [Tariquidar]
Duration of 100% inhibition of ABCB1 in CD56+ lymphocytes [8]: over 24 hours | Inhibition of ABCB1 in CD56+ lymphocytes [8]: 100% | Persistence of inhibitory effect on drug efflux in vitro [9]: persists for over two hours

COc1cc2c(cc1OC)CN(CCc1ccc(NC(=O)c3cccc4c(=O)c5cccc(OC)c5[nH]c34)cc1)CC2 [elacridar]
Fold increase in brain-to-plasma concentration ratio of imatinib [10]: 9.3 fold
